Test results published in patent US20040038861A1, “Methods and compositions for normalizing lipid levels in mammalian tissues” (priority 2001, published 2004).

Key:
[1] = test system: soleus muscle; assay: Lipid metabolites (free fatty acid, glycerol, triglyceride; enzymatic analysis) in isolated soleus muscle from normally fed rats; format: cell-based, rat; settings: for soleus muscle free fatty acid content, agonist alone: 100 nM, normal-fed rats (FIG. 3A, 3B); for triacylglycerol (triglyceride) content: 60-min, control 1.17±0.15, not significant; for intramuscular glycerol content: control 0.07±0.007
[2] = test system: soleus muscle; assay: Individual free fatty acids by gas chromatography in isolated soleus muscle from normally fed rats; format: cell-based, rat; settings: for Total free fatty acids / free fatty acid C14:0 as percentage of total resting fatty acid / free fatty acid C15:0 as percentage of total resting fatty acid / free fatty acid C16:0 as percentage of total resting fatty acid / free fatty acid C16:1 (n-7) as percentage of total resting fatty acid / free fatty acid C16:1 (n-9) as percentage of total resting fatty acid / free fatty acid C17:0 as percentage of total resting fatty acid / free fatty acid C18:0 as percentage of total resting fatty acid / free fatty acid C18:1 (n-7) as percentage of total resting fatty acid / free fatty acid C18:1 (n-9) as percentage of total resting fatty acid / free fatty acid C18:2 as percentage of total resting fatty acid / free fatty acid C18:3 as percentage of total resting fatty acid / free fatty acid C20:0 as percentage of total resting fatty acid / free fatty acid C20:4 as percentage of total resting fatty acid / free fatty acid C20:5 as percentage of total resting fatty acid / free fatty acid C22:4 as percentage of total resting fatty acid / free fatty acid C22:6 as percentage of total resting fatty acid: 1 hour; for Total free fatty acids / free fatty acid adrenic C22:4 / free fatty acid arachidic C20:0 / free fatty acid arachidonic C20:4 / free fatty acid cervonic C22:6 / free fatty acid linoleic C18:2 / free fatty acid linolenic C18:3 / free fatty acid margaric C17:0 / free fatty acid myristic C14:0 / free fatty acid oleic C18:1 / free fatty acid palmitic C16:0 / free fatty acid palmitoleic (n-7) C16:1 / free fatty acid palmitoleic (n-9) C16:1 / free fatty acid pentadecanoic C15:0 / free fatty acid stearic C18:0 / free fatty acid timnodonic C20:5 / free fatty acid vaccenic C18:1: GC; for Total free fatty acids: hormone concentrations 100 nM for all; for free fatty acid C14:0 as percentage of total resting fatty acid / free fatty acid C15:0 as percentage of total resting fatty acid / free fatty acid C16:0 as percentage of total resting fatty acid / free fatty acid C16:1 (n-7) as percentage of total resting fatty acid / free fatty acid C16:1 (n-9) as percentage of total resting fatty acid / free fatty acid C17:0 as percentage of total resting fatty acid / free fatty acid C18:0 as percentage of total resting fatty acid / free fatty acid C18:1 (n-7) as percentage of total resting fatty acid / free fatty acid C18:1 (n-9) as percentage of total resting fatty acid / free fatty acid C18:2 as percentage of total resting fatty acid / free fatty acid C18:3 as percentage of total resting fatty acid / free fatty acid C20:0 as percentage of total resting fatty acid / free fatty acid C20:4 as percentage of total resting fatty acid / free fatty acid C20:5 as percentage of total resting fatty acid / free fatty acid C22:4 as percentage of total resting fatty acid / free fatty acid C22:6 as percentage of total resting fatty acid / free fatty acid adrenic C22:4 / free fatty acid arachidic C20:0 / free fatty acid arachidonic C20:4 / free fatty acid cervonic C22:6 / free fatty acid linoleic C18:2 / free fatty acid linolenic C18:3 / free fatty acid margaric C17:0 / free fatty acid myristic C14:0 / free fatty acid oleic C18:1 / free fatty acid palmitic C16:0 / free fatty acid palmitoleic (n-7) C16:1 / free fatty acid palmitoleic (n-9) C16:1 / free fatty acid pentadecanoic C15:0 / free fatty acid stearic C18:0 / free fatty acid timnodonic C20:5 / free fatty acid vaccenic C18:1: normally fed rats; for free fatty acid adrenic C22:4 / free fatty acid arachidic C20:0 / free fatty acid arachidonic C20:4 / free fatty acid cervonic C22:6 / free fatty acid linoleic C18:2 / free fatty acid linolenic C18:3 / free fatty acid margaric C17:0 / free fatty acid myristic C14:0 / free fatty acid oleic C18:1 / free fatty acid palmitic C16:0 / free fatty acid palmitoleic (n-7) C16:1 / free fatty acid palmitoleic (n-9) C16:1 / free fatty acid pentadecanoic C15:0 / free fatty acid stearic C18:0 / free fatty acid timnodonic C20:5 / free fatty acid vaccenic C18:1: hormone 1 hour
Procedure: Animal models. Normallyfed rats. All protocols were approved by the University of Auckland Animal Ethics Committee. Male Wistar rats, (age=50 d) weighing 200-250 g, were housed in a constant 12 h/12 h-light/dark cycle and received standard rat-chow (Diet 86, NRM, Auckland) and water ad libitum. The standard diet contained 5% fat (w/w), which comprised mainly beef tallow. The triglyceride, total and free fatty acid contents of representative samples of this diet were analyzed, and are shown in Table 3. Rats were anaesthetized by intraperitoneal injection of sodium pentobarbital (45 mg/kg body weight) then sacrificed by cervical dislocation.
Soleus muscle tissue isolation and incuhation.Immersion and incubation media was Krebs-Henseleit buffer (KHB) containing 118.5 mM NaCl, 4.75 mM KCl, 1.18 mM MgSO4.7H2O and KH2PO4, 24.8 mM NaHCO3, 2.54 mM CaCl2 and 10 mM d-glucose. The medium was gassed continuously with 95% O2/5% CO2. […] Soleus muscles of both legs were excised keeping the tissue immersed in KHB; muscles were separated into two equal parts and transferred to the incubation flasks. At the completion of incubation the muscles were snap frozen in liquid nitrogen, and then trimmed of connective tissue and all visible fat. The muscle strips were stored at −80° C. until analysis.
Lipid extraction and chromatographic separation of fatty acids. Total lipids were extracted from muscle strips by a modified version of the method of Bligh and Dyer (Gorski et al., 1988, Mol & Cell Biochem 178:113-118; 1. Bligh et al., 1959, Can J Biochem Physiol 37: 911-917). Muscles were homogenised (Soniprep 150) in 0.4 ml of deionised water. Solvent volumes used herein were varied according to the water content of the muscle (ie muscle weight) as described (Bligh & Dyer, supra). 2 vols of methanol containing 0.005% butylated hydroxy toluene (BHT) and 1 vol chloroform were added to the muscle suspension. Homogenates were vortexed at maximum speed for 2 minutes and centrifuged at 2,500 g for 4 minutes. Supernatants were recovered and pellets re-extracted with 2 vol methanol, 1 vol chloroform and 0.8 vol 0.2 N HCl. Residues were vortexed for 2 min then centrifuged at 3,500 g for 3 min. After centrifugation the combined supernatants were diluted with 2v each of milli Q water and chloroform and the phases separated by centrifugation at 3,500 g for 4 minutes. The lower chloroform phase was recovered, neutralised by dropwise addition of 0.2 N methanolic NH4OH and evaporated down in a stream of N2. The samples were stored at −80° C. until required.
Aminopropyl phase (250 mg) was packed into 16 ml teflon columns with teflon frits placed at the top and bottom of the bonded phase. Columns were placed in a Vac Elut apparatus and washed twice with 2 ml portions of hexane (Prasad et al., 1988, J Chromato 428: 221-228; Kaluzny et al., 1985, J Lipid Res 26: 135-140). The dry lipid samples were taken up in two 0.150 ml portions of chloroform and applied to the column under atmospheric pressure. After adsorption the neutral lipids were eluted with 4 ml of chloroform-2-propanol (2:1, v/v) and the free fatty acids eluted with 4 ml of 2% acetic acid in diethyl ether. The solvent containing the free fatty acids was dried under a stream of N2.
Gas-liquid chromatographic analysis. Dry free fatty acid residues were processed for derivatisation of methyl esters by the boron trifluoride-methanol method (Prasad, supra). 1 ml of boron trifluoride in methanol (BF3) was added to each sample, the sample vials were heated at 70° C. for 5 minutes, shaken vigorously, and baked for a further 10 minutes. Once the samples reached room temperature 0.5 ml milli Q water was added, the sample vials shaken, 0.1 ml heptane was added and the sample shaken again. 0.05 ml of the top heptane layer was removed for GLC analysis. […]

[3] = soleus, normally fed rats, 100 nM amylin or CGRP-1, 4.4 μM norepinephrine
[4] = soleus, normally fed rats, 1 h, 100 nM amylin or CGRP-1, 4.4 μM norepinephrine

Rat amylin was tested, and the “soleus muscle free fatty acid content, agonist alone” value ([1]; 1 h) was 216 ± 26 nmol/g, the “triacylglycerol (triglyceride) content” value [1, 3] was 1.7 ± 0.26 µmol/g and the “intramuscular free fatty acid content” value ([1]; soleus, normally fed rats, 1 h, 100 nM amylin or CGRP-1, 4.4 μM norepinephrine, 23.7 nM insulin, control 78±21) was 216 ± 22 nmol/g. The intramuscular glycerol content [1, 4] was 0.03 ± 0.004 nmol/g, the “Total free fatty acids” value [2] was 0.636 ± 0.05 nmol/g wwt and the “free fatty acid C14:0 as percentage of total resting fatty acid” value [2] was 3.4%. For the same substance, the “free fatty acid C15:0 as percentage of total resting fatty acid” value [2] was 15.4%, the “free fatty acid C16:0 as percentage of total resting fatty acid” value [2] was 2.6% and the “free fatty acid C16:1 (n-7) as percentage of total resting fatty acid” value [2] was 15.8%. The “free fatty acid C16:1 (n-9) as percentage of total resting fatty acid” value [2] was 7.2%, the “free fatty acid C17:0 as percentage of total resting fatty acid” value [2] was 10.7% and the “free fatty acid C18:0 as percentage of total resting fatty acid” value [2] was 2.9%. For the same substance, the “free fatty acid C18:1 (n-7) as percentage of total resting fatty acid” value [2] was 1.3%, the “free fatty acid C18:1 (n-9) as percentage of total resting fatty acid” value [2] was 1.6% and the “free fatty acid C18:2 as percentage of total resting fatty acid” value [2] was 1.1%. For the same substance, the “free fatty acid C18:3 as percentage of total resting fatty acid” value [2] was 3.7%, the “free fatty acid C20:0 as percentage of total resting fatty acid” value [2] was 4.5% and the “free fatty acid C20:4 as percentage of total resting fatty acid” value [2] was 1.0%. The “free fatty acid C20:5 as percentage of total resting fatty acid” value [2] was 1.4%, the “free fatty acid C22:4 as percentage of total resting fatty acid” value [2] was 9.1% and the “free fatty acid C22:6 as percentage of total resting fatty acid” value [2] was 3.3%. The “free fatty acid adrenic C22:4” value [2] was 0.008 ± 0.003 nmol/g wwt, the “free fatty acid arachidic C20:0” value [2] was 0.008 ± 0.002 nmol/g wwt and the “free fatty acid arachidonic C20:4” value [2] was 0.016±0.002 nmol/g wwt. For the same substance, the “free fatty acid cervonic C22:6” value [2] was 0.03±0.004 nmol/g wwt, the “free fatty acid linoleic C18:2” value [2] was 0.058 ± 0.006 nmol/g wwt and the “free fatty acid linolenic C18:3” value [2] was 0.01 ± 0.002 nmol/g wwt. The “free fatty acid margaric C17:0” value [2] was 0.013 ± 0.0022 nmol/g wwt, the “free fatty acid myristic C14:0” value [2] was 0.026 ± 0.0028 nmol/g wwt and the “free fatty acid oleic C18:1” value [2] was 0.076 ± 0.0082 nmol/g wwt. For the same substance, the “free fatty acid palmitic C16:0” value [2] was 0.21 ± 0.0188 nmol/g wwt, the “free fatty acid palmitoleic (n-7) C16:1” value [2] was 0.015 ± 0.0025 nmol/g wwt and the “free fatty acid palmitoleic (n-9) C16:1” value [2] was 0.008±0.0013 nmol/g wwt. The “free fatty acid pentadecanoic C15:0” value [2] was 0.013 ± 0.002 nmol/g wwt, the “free fatty acid stearic C18:0” value [2] was 0.125 ± 0.0058 nmol/g wwt and the “free fatty acid timnodonic C20:5” value [2] was 0.005 ± 0.0007 nmol/g wwt. For the same substance, the “free fatty acid vaccenic C18:1” value [2] was 0.015 ± 0.0015 nmol/g wwt, the “free fatty acid arachidonic C20:4” value ([2]; listed as Amylin) was 0.016 ± 0.002 nmol/g wwt and the “free fatty acid cervonic C22:6” value ([2]; listed as Amylin) was 0.03 ± 0.004 nmol/g wwt. The “free fatty acid palmitoleic (n-9) C16:1” value ([2]; listed as Amylin) was 0.008 ± 0.0013 nmol/g wwt.

rat CGRP-1 was tested, and the “soleus muscle free fatty acid concentration, agonist alone” value ([1]; 1 pM CGRP, 1 h (FIG. 3C)) was 166 ± 18 nmol/g, the “soleus muscle free fatty acid content, agonist alone” value ([1]; 1 h) was 334 ± 52 nmol/g and the “triacylglycerol (triglyceride) content” value [1, 3] was 1.9 ± 0.23 µmol/g. The intramuscular glycerol content [1, 4] was 0.04 ± 0.008 nmol/g, the “Total free fatty acids” value [2] was 0.691 ± 0.04 nmol/g wwt and the “free fatty acid C14:0 as percentage of total resting fatty acid” value [2] was 3.6%. For the same substance, the “free fatty acid C15:0 as percentage of total resting fatty acid” value [2] was 12.9%, the “free fatty acid C16:0 as percentage of total resting fatty acid” value [2] was 2.9% and the “free fatty acid C16:1 (n-7) as percentage of total resting fatty acid” value [2] was 21.6%. The “free fatty acid C16:1 (n-9) as percentage of total resting fatty acid” value [2] was 7.5%, the “free fatty acid C17:0 as percentage of total resting fatty acid” value [2] was 10.7% and the “free fatty acid C18:0 as percentage of total resting fatty acid” value [2] was 3.6%. The “free fatty acid C18:1 (n-7) as percentage of total resting fatty acid” value [2] was 1.4%, the “free fatty acid C18:1 (n-9) as percentage of total resting fatty acid” value [2] was 1.8% and the “free fatty acid C18:2 as percentage of total resting fatty acid” value [2] was 1.0%. For the same substance, the “free fatty acid C18:3 as percentage of total resting fatty acid” value [2] was 2.1%, the “free fatty acid C20:0 as percentage of total resting fatty acid” value [2] was 3.6% and the “free fatty acid C20:4 as percentage of total resting fatty acid” value [2] was 1.1%. For the same substance, the “free fatty acid C20:5 as percentage of total resting fatty acid” value [2] was 1.0%, the “free fatty acid C22:4 as percentage of total resting fatty acid” value [2] was 8.1% and the “free fatty acid C22:6 as percentage of total resting fatty acid” value [2] was 2.7%. The “free fatty acid adrenic C22:4” value [2] was 0.007 ± 0.002 nmol/g wwt, the “free fatty acid arachidic C20:0” value [2] was 0.007 ± 0.0008 nmol/g wwt and the “free fatty acid arachidonic C20:4” value [2] was 0.018±0.002 nmol/g wwt. For the same substance, the “free fatty acid cervonic C22:6” value [2] was 0.022±0.002 nmol/g wwt, the “free fatty acid linoleic C18:2” value [2] was 0.057 ± 0.006 nmol/g wwt and the “free fatty acid linolenic C18:3” value [2] was 0.005 ± 0.0013 nmol/g wwt. The “free fatty acid margaric C17:0” value [2] was 0.015 ± 0.0015 nmol/g wwt, the “free fatty acid myristic C14:0” value [2] was 0.028 ± 0.001 nmol/g wwt and the “free fatty acid oleic C18:1” value [2] was 0.09 ± 0.0075 nmol/g wwt. The “free fatty acid palmitic C16:0” value [2] was 0.23 ± 0.01 nmol/g wwt, the “free fatty acid palmitoleic (n-7) C16:1” value [2] was 0.022 ± 0.002 nmol/g wwt and the “free fatty acid palmitoleic (n-9) C16:1” value [2] was 0.008±0.0006 nmol/g wwt. For the same substance, the “free fatty acid pentadecanoic C15:0” value [2] was 0.01 ± 001 nmol/g wwt, the “free fatty acid stearic C18:0” value [2] was 0.15 ± 0.01 nmol/g wwt and the “free fatty acid timnodonic C20:5” value [2] was 0.003 ± 0.0005 nmol/g wwt. For the same substance, the “free fatty acid vaccenic C18:1” value [2] was 0.017 ± 0.0015 nmol/g wwt.
